The values that follow come from ChEMBL document CHEMBL1201862, “PubChem BioAssay data set” (2004).

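Compound exposure: 48 hours, 5 concentrations, 96-well plates. Abbreviation: GI50, concentration required for 50% inhibition of growth.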 Activity calls are given as the source filed them. Rule as the data show it: active = GI50 up to about 1.1 µM and inactive = higher.

Holding throughout (assay): inhibition of tumour cell growth, NCI panel, 48 h
The test system of assay [1] is 786-0.
Assay [2] relates to ACHN.
The subject of assay [3] is BT-549.
Assay [4] has as its system CCRF-CEM.
For assay [5], the system named is HCT-116.
Assay [6] deals with HCT-15.
The subject of assay [7] is HOP-62.
For assay [8], the system named is HT-29.
Assay [9] relates to K562.
For assay [10], the system named is M14.
Assay [11] deals with MDA-MB-231.
Assay [12] concerns MDA-N.
Assay [13] deals with NCI-H23.
Assay [14] has as its system SF-539.
In assay [15] the test system is SK-MEL-28.
The subject of assay [16] is SNB-19.
In assay [17] the test system is U-251.
Assay [18] has as its system IGROV-1.
The test system of assay [19] is LOX IMVI.
Assay [20] relates to Hs-578T.

For the molecule `CSc1nc(-c2cc3c(c(SC)n2)CCC3)cc2c1CCC2`, the GI50 in [1] was > 100 µM (inactive); in assay [2], > 100 µM (inactive); in [3], > 100 µM (inactive); in assay [4] it was > 100 µM (inactive); in assay [5], > 100 µM (inactive); in [6], greater than 100 µM. Further, the GI50 in [7], in assay [8], in [9], in assay [10], in assay [11] and in [12] was > 100 µM (inactive) throughout. For the same molecule, the GI50 in [13], in [14], in assay [15], in [16] and in [17] was > 100 µM (inactive) throughout.
Consider `Clc1ccccc1-c1nnc2c(-c3ccccc3)nc3ccccc3n12`, for which the GI50 in [1] was 40.9 µM (inactive); in [2] it was > 100 µM (inactive); in [3] it was > 100 µM (inactive); in assay [4], 26 µM (inactive); in assay [5], > 100 µM (inactive); in [6], greater than 100 µM. Moreover, the GI50 is 69.3 µM (inactive) in assay [7]; 47.3 µM (inactive) in assay [8]; > 100 µM (inactive) in [18]; > 100 µM (inactive) in assay [9]; > 100 µM (inactive) in [19]; > 100 µM (inactive) in assay [10]. For the same molecule, the GI50 was > 100 µM (inactive) in assay [11]; 96.6 µM (inactive) in assay [12]; > 100 µM (inactive) in [13]; > 100 µM (inactive) in assay [14]; > 100 µM (inactive) in assay [15]; > 100 µM (inactive) in assay [16]. The GI50 in assay [17] is > 100 µM (inactive).
With `CC(=O)OC1CN2CCC1CC2` (configuration not stated) [ACECLIDINE], the GI50 in assay [1] is > 100 µM (inactive); in assay [2] it was > 100 µM (inactive); in [3], > 100 µM (inactive); in assay [4], > 100 µM (inactive); in assay [5], > 100 µM (inactive); in assay [6], greater than 100 µM. The GI50 in [7], in assay [8], in assay [20], in [18], in assay [9] and in assay [19] was > 100 µM (inactive) each time. For the same molecule, the GI50 in assay [10], in assay [11], in assay [13], in assay [14], in assay [15] and in assay [16] was > 100 µM (inactive) in each case. Besides, the GI50 in assay [17] was > 100 µM (inactive).
For `Cc1cc(S(=O)(=O)N/C(=C(\C#N)C(=O)c2ccc(Cl)cc2)[n+]2ccc(N(C)C)cc2)c([S-])cc1Cl`, the GI50 is > 100 µM (inactive) in assay [1]; > 100 µM (inactive) in [2]; > 100 µM (inactive) in assay [3]; 64 µM (inactive) in assay [4]; 19.8 µM (inactive) in assay [5]; 48.6 µM in assay [6]. Further, the GI50 in assay [7] is 38.1 µM (inactive); in [8], 30.1 µM (inactive); in [18] it was > 100 µM (inactive); in [9] it was 53.2 µM (inactive); in [10] it was 41.9 µM (inactive); in assay [11], > 100 µM (inactive). For the same molecule, the GI50 in assay [12] is > 100 µM (inactive); in assay [14], 67.3 µM (inactive); in assay [15], > 100 µM (inactive); in [17] it was > 100 µM (inactive).
As for `CCOn1c(C2(CC3CCN(C(=O)c4ccccc4)CC3)OCCO2)cc2ccccc21`, the GI50 was 16.5 µM (inactive) in assay [1]; 14.6 µM (inactive) in assay [2]; 19.4 µM (inactive) in assay [3]; 12.6 µM (inactive) in assay [4]; 15.8 µM (inactive) in assay [5]; 22.5 µM in [6]. The GI50 was 15.1 µM (inactive) in assay [7]; 18.9 µM (inactive) in assay [8]; 15 µM (inactive) in [18]; 11.4 µM (inactive) in assay [9]; 15.7 µM (inactive) in assay [19]; 16.7 µM (inactive) in assay [10]. For the same molecule, the GI50 in assay [11] is 15.5 µM (inactive); in assay [12], 16.5 µM (inactive); in assay [13], 19.5 µM (inactive); in assay [14], 18.7 µM (inactive); in assay [15] it was 13.2 µM (inactive); in assay [16], 16.7 µM (inactive). In addition, the GI50 in assay [17] was 16.3 µM (inactive).
Turning to `Clc1ccc(Cc2nc3cc4ccccc4cc3[nH]2)cc1Cl`, the GI50 in assay [1] was 27 µM (inactive); in assay [2], 30.8 µM (inactive); in [3] it was 16 µM (inactive); in assay [4], 37.9 µM (inactive); in assay [5] it was 20.1 µM (inactive); in assay [6] it was 15.2 µM. Besides, the GI50 in assay [7] is 26.1 µM (inactive); in assay [8] it was 10.2 µM (inactive); in assay [20] it was 21.3 µM (inactive); in assay [18], 3.01 µM (inactive); in assay [9], 6.15 µM (inactive); in [19], 14.5 µM (inactive). Besides, the GI50 in assay [10] is 26.2 µM (inactive); in [11] it was 16.6 µM (inactive); in [13] it was 27.3 µM (inactive); in assay [14], 15.5 µM (inactive); in [15], 12.6 µM (inactive); in assay [16] it was 18.7 µM (inactive). Also, the GI50 in [17] was 15.5 µM (inactive).
`O=c1c2ccc(Cl)cc2oc2c(CNc3ccc(S(=O)(=O)Nc4ncccn4)cc3)cccc12`: the GI50 in [1] was > 100 µM (inactive); in assay [2] it was > 100 µM (inactive); in assay [3] it was > 100 µM (inactive); in assay [4], > 100 µM (inactive); in [5], > 100 µM (inactive); in assay [6], greater than 100 µM. Further, the GI50 was 90.8 µM (inactive) in assay [7]; > 100 µM (inactive) in assay [8]; > 100 µM (inactive) in assay [18]; > 100 µM (inactive) in [9]; > 100 µM (inactive) in assay [19]; > 100 µM (inactive) in assay [10]. For the same molecule, the GI50 was > 100 µM (inactive) in [11]; > 100 µM (inactive) in assay [12]; > 100 µM (inactive) in assay [13]; 94.4 µM (inactive) in [14]; > 100 µM (inactive) in assay [15]; > 100 µM (inactive) in [16]. In assay [17], the GI50 was > 100 µM (inactive).
As to `COc1ccc(CC(C)NCC(O)c2ccc(O)c(NC=O)c2)cc1` (configuration not stated), the GI50 in [1] is > 100 µM (inactive); in assay [2], > 100 µM (inactive); in [3], > 100 µM (inactive); in assay [4], > 100 µM (inactive); in [5] it was 43.4 µM (inactive); in assay [6], greater than 100 µM. Moreover, the GI50 is > 100 µM (inactive) in [7]; 86.7 µM (inactive) in [8]; > 100 µM (inactive) in assay [20]; > 100 µM (inactive) in assay [18]; > 100 µM (inactive) in assay [9]; > 100 µM (inactive) in assay [19]. The GI50 in assay [10] was > 100 µM (inactive); in assay [11], < 0.01 µM (active); in [13], > 100 µM (inactive); in [14], > 100 µM (inactive); in assay [15], > 100 µM (inactive); in assay [16] it was > 100 µM (inactive). Also, the GI50 in [17] was > 100 µM (inactive).
